Reference: patent US11000033B2, “Ketone or oxime compound, and herbicide” (NISSAN CHEMICAL CORPORATION, priority 2014, dated 2021)

Legend:
Format in all cases: in vivo
Alopecurus myosuroides [1] = experiment: Test Example 4: herbicidal effect by soil treatment (symbol J); conditions: for Herbicidal effect grade, J: Alopecurus myosuroides / J (Alopecurus myosuroides) herbicidal effect grade: application herbicide amount 320 g/ha
In short: (§1)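 Seeds were sown in sterilized diluvial soil, covered with about 1.5 cm of soil, and the soil surface was sprayed with a water-diluted emulsion of the compound at a predetermined rate. Plants grew in a greenhouse at 25° C. to 30° C.; effects were scored visually 3 weeks after application.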

Scirpus juncoides = experiment: Test Example 2: herbicidal activity, application during weed generation in submerged conditions (symbol B); conditions: Table 23, grade 0-5 by criteria of Test Example 1
In short: (§2)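 Flooded-soil post-emergence test: emulsion of compound, water-diluted to target rate, applied to paddy water surface at 1–2 leaf stage of mixed-sown weeds (alluvial soil, 4 cm water, 25–30° C. greenhouse); visual rating 3 weeks after application.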

Alopecurus myosuroides [2] = experiment: Test Example 5: herbicidal effect by foliage application, plastic box (symbol J); conditions: 3 weeks after application; for J: Alopecurus myosuroides, herbicidal effect grade: 320 g/ha
In short: (§3)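 Herbicide, formulated as an emulsion and diluted in water, is sprayed onto the aerial parts of 14-day seedlings. These were grown at 25° C. to 30° C. in sterilized diluvial soil; effects are graded after 3 weeks.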

Avena fatua = experiment: Test Example 4: herbicidal effect by soil treatment (symbol I); conditions: for Herbicidal effect grade, I: Avena fatua / I (Avena fatua) herbicidal effect grade: application herbicide amount 320 g/ha
In short: as §1

Apera spica-venti = experiment: Test Example 4: herbicidal effect by soil treatment (symbol L); conditions: for Herbicidal effect grade, L: Apera spica-venti / L (Apera spica-venti) herbicidal effect grade: application herbicide amount 320 g/ha
In short: as §1

corn [3] = experiment: Test Example 4: effect on crop by soil treatment (symbol c); conditions: for Effect on crop grade, c: corn / c (corn) effect on crop grade: application herbicide amount 320 g/ha
In short: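 Plants are raised in a greenhouse (25° C. to 30° C.) from spot-sown seed, which sits under about 1.5 cm of sterilized diluvial soil in a box shared with weed species.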

Digitaria ciliaris = experiment: Test Example 5: herbicidal effect by foliage application, plastic box (symbol F); conditions: 3 weeks after application; for F: Digitaria ciliaris, herbicidal effect grade: 320 g/ha
In short: as §3

[4] = system: Echinochloa crus-galli var. crus-galli; experiment: Test Example 3: herbicidal effect by foliage application, Wagner pot (symbol H); conditions: for H (Echinochloa crus-galli var. crus-galli) herbicidal effect grade: Table 24
In short: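 Rating at 3 weeks post-spray, by defined criteria. Treatment: emulsion diluted with water to a predetermined amount, applied evenly to foliage of 14-day-old plants raised in alluvial soil flooded 0.1–0.5 cm deep at 25–30 °C, rice co-sown.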

Veronica persica = experiment: Test Example 5: herbicidal effect by foliage application, plastic box (symbol R); conditions: 3 weeks after application; for R: Veronica persica, herbicidal effect grade: 320 g/ha
In short: as §3

Abutilon theophrasti = experiment: Test Example 4: herbicidal effect by soil treatment (symbol M); conditions: for Herbicidal effect grade, M: Abutilon theophrasti / M (Abutilon theophrasti) herbicidal effect grade: application herbicide amount 320 g/ha
In short: as §1

corn [5] = experiment: Test Example 5: effect on crop by foliage application, plastic box (symbol c); conditions: 3 weeks after application; for c: corn, effect on crop grade: 320 g/ha
In short: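 Diluvial soil, sterilized and boxed (21 × 13 × 7 cm), received spot-sown seed covered by about 1.5 cm soil; plants were then greenhouse-grown at 25–30° C.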

transplanted rice plant = experiment: Test Example 1: effect on crop, application before weed generation in submerged conditions (symbol a)
In short: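 Rice at 2.5 leaf stage transplanted into submerged soil (4 cm depth) sown with three weed species; herbicide applied before weed emergence.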

[6] = system: Echinochloa oryzacola Vasing.; experiment: Test Example 2: herbicidal activity, application during weed generation in submerged conditions (symbol A); conditions: Table 23, grade 0-5 by criteria of Test Example 1
In short: as §2

Amaranthus retroflexus = experiment: Test Example 5: herbicidal effect by foliage application, plastic box (symbol N); conditions: 3 weeks after application; for N: Amaranthus retroflexus, herbicidal effect grade: 320 g/ha
In short: as §3

[7] = application herbicide amount 320 g/ha
[8] = application herbicide amount 192 g/ha

Row | Compound | Herbicidal effect grade, J: Alopecurus myosuroides (Alopecurus myosuroides [1]) | Herbicidal effect grade, B: Scirpus juncoides (Scirpus juncoides; [7]) | J: Alopecurus myosuroides, herbicidal effect grade (Alopecurus myosuroides [2]) | Herbicidal effect grade, I: Avena fatua (Avena fatua) | Herbicidal effect grade, L: Apera spica-venti (Apera spica-venti) | Effect on crop grade, c: corn (corn [3]) | F: Digitaria ciliaris, herbicidal effect grade (Digitaria ciliaris) | H (Echinochloa crus-galli var. crus-galli) herbicidal effect grade [4, 7] | R: Veronica persica, herbicidal effect grade (Veronica persica) | Herbicidal effect grade, M: Abutilon theophrasti (Abutilon theophrasti) | c: corn, effect on crop grade (corn [5]) | a (transplanted rice plant) effect on crop grade (transplanted rice plant; [7]) | Herbicidal effect grade, A: Echinochloa oryzacola Vasing. [6, 7] | N: Amaranthus retroflexus, herbicidal effect grade (Amaranthus retroflexus) | J (Alopecurus myosuroides) herbicidal effect grade (Alopecurus myosuroides [1]) | I (Avena fatua) herbicidal effect grade (Avena fatua) | L (Apera spica-venti) herbicidal effect grade (Apera spica-venti) | c (corn) effect on crop grade (corn [3]) | herbicidal effect on H (Echinochloa crus-galli var. crus-galli), grade 0-5 [4, 7] | M (Abutilon theophrasti) herbicidal effect grade (Abutilon theophrasti) | other results
1 | COCCON=C(C)CC1CC(O)=C(c2c(C)cc(-n3cc(Cl)cn3)cc2C)C1=O (stereo not shown) [9-016] | 5 (Herbicidal ratio of 90% or more (almost completely withered)) | 4 (Herbicidal ratio of 70% or higher and lower than 90%) | 5 (Herbicidal ratio of 90% or more (almost completely withered)) | 2 (Herbicidal ratio of 20% or higher and lower than 40%) | 1 (Herbicidal ratio of 5% or higher and lower than 20%) | 3 (Herbicidal ratio of 40% or higher and lower than 70%) | 5 (Herbicidal ratio of 90% or more (almost completely withered)) | 5 (Herbicidal ratio of 90% or more (almost completely withered)) | 1 (Herbicidal ratio of 5% or higher and lower than 20%) | 0 (Herbicidal ratio of 5% or lower (almost no effect)) | 5 (Herbicidal ratio of 90% or more (almost completely withered)) | 5 (Herbicidal ratio of 90% or more (almost completely withered)) | 5 (Herbicidal ratio of 90% or more (almost completely withered)) | 0 (Herbicidal ratio of 5% or lower (almost no effect)) | – | – | – | – | – | – | –
2 | CON=C(C)CC1CC(OC(=O)C(C)(C)C)=C(c2c(C)cc(C)cc2C)C1=O (stereo not shown) [1-004, 2-mesityl-4-{2-(methoxyimino)propyl}-3-oxocyclopent-1-en-1-yl pivalate] | – | 4 (Herbicidal ratio of 70% or higher and lower than 90%) | 5 (Herbicidal ratio of 90% or more (almost completely withered)) | – | – | – | 5 (Herbicidal ratio of 90% or more (almost completely withered)) | – | 4 (Herbicidal ratio of 70% or higher and lower than 90%) | – | 5 (Herbicidal ratio of 90% or more (almost completely withered)) | – | 5 (Herbicidal ratio of 90% or more (almost completely withered)) | 4 (Herbicidal ratio of 70% or higher and lower than 90%) | 5 (Herbicidal ratio of 90% or more (almost completely withered)) | 5 (Herbicidal ratio of 90% or more (almost completely withered)) | 5 (Herbicidal ratio of 90% or more (almost completely withered)) | 4 (Herbicidal ratio of 70% or higher and lower than 90%) | 5 (Herbicidal ratio of 90% or more (almost completely withered)) | 5 (Herbicidal ratio of 90% or more (almost completely withered)) | Effect grade on crop, a: transplanted rice plant (transplanted rice plant; [7]): 5 (Herbicidal ratio of 90% or more (almost completely withered))
3 | Cc1cc(Br)cc(C)c1C1=C(O)CC(CC(=O)C2CC2)C1=O (racemic) [10-004] | 5 (Herbicidal ratio of 90% or more (almost completely withered)) | 0 (Herbicidal ratio of 5% or lower (almost no effect)) | 5 (Herbicidal ratio of 90% or more (almost completely withered)) | 3 (Herbicidal ratio of 40% or higher and lower than 70%) | 5 (Herbicidal ratio of 90% or more (almost completely withered)) | 5 (Herbicidal ratio of 90% or more (almost completely withered)) | 5 (Herbicidal ratio of 90% or more (almost completely withered)) | 5 (Herbicidal ratio of 90% or more (almost completely withered)) | 3 (Herbicidal ratio of 40% or higher and lower than 70%) | 0 (Herbicidal ratio of 5% or lower (almost no effect)) | 5 (Herbicidal ratio of 90% or more (almost completely withered)) | 5 (Herbicidal ratio of 90% or more (almost completely withered)) | 5 (Herbicidal ratio of 90% or more (almost completely withered)) | 0 (Herbicidal ratio of 5% or lower (almost no effect)) | – | – | – | – | – | – | –
4 | CON=C(C)CC1CC(OC(C)=O)=C(c2c(C)cc(C)cc2C)C1=O (stereo not shown) [1-005] | – | 4 (Herbicidal ratio of 70% or higher and lower than 90%) | 5 (Herbicidal ratio of 90% or more (almost completely withered)) | – | – | – | 5 (Herbicidal ratio of 90% or more (almost completely withered)) | – | 3 (Herbicidal ratio of 40% or higher and lower than 70%) | – | 5 (Herbicidal ratio of 90% or more (almost completely withered)) | – | 5 (Herbicidal ratio of 90% or more (almost completely withered)) | 4 (Herbicidal ratio of 70% or higher and lower than 90%) | 5 (Herbicidal ratio of 90% or more (almost completely withered)) | 5 (Herbicidal ratio of 90% or more (almost completely withered)) | 5 (Herbicidal ratio of 90% or more (almost completely withered)) | 4 (Herbicidal ratio of 70% or higher and lower than 90%) | 5 (Herbicidal ratio of 90% or more (almost completely withered)) | 5 (Herbicidal ratio of 90% or more (almost completely withered)) | Effect grade on crop, a: transplanted rice plant (transplanted rice plant; [7]): 5 (Herbicidal ratio of 90% or more (almost completely withered))
5 | CON=C(C)CC1CC(OC(=O)C2CCCO2)=C(c2c(C)cc(C)cc2C)C1=O (stereo not shown) [1-076] | – | – | – | – | – | – | – | – | – | – | – | – | – | – | – | – | – | – | – | – | J: Alopecurus myosuroides, herbicidal effect grade (Alopecurus myosuroides [1]; 192 g/ha): 4 (Herbicidal ratio of 70% or higher and lower than 90%); Herbicidal effect grade, B: Scirpus juncoides (Scirpus juncoides; [8]): 4 (Herbicidal ratio of 70% or higher and lower than 90%); J: Alopecurus myosuroides, herbicidal effect (criteria 0-5) (Alopecurus myosuroides [2]; 192 g/ha): 5 (Herbicidal ratio of 90% or more (almost completely withered)); I: Avena fatua, herbicidal effect grade (Avena fatua; 192 g/ha): 4 (Herbicidal ratio of 70% or higher and lower than 90%); L: Apera spica-venti, herbicidal effect grade (Apera spica-venti; 192 g/ha): 5 (Herbicidal ratio of 90% or more (almost completely withered)); c: corn, effect grade on crop (corn [3]; 192 g/ha): 2 (Herbicidal ratio of 20% or higher and lower than 40%); F: Digitaria ciliaris, herbicidal effect (criteria 0-5) (Digitaria ciliaris; 192 g/ha): 5 (Herbicidal ratio of 90% or more (almost completely withered)); herbicidal effect on H (Echinochloa crus-galli var. crus-galli), grade 0-5 [4, 8]: 5 (Herbicidal ratio of 90% or more (almost completely withered)); R: Veronica persica, herbicidal effect (criteria 0-5) (Veronica persica; 192 g/ha): 3 (Herbicidal ratio of 40% or higher and lower than 70%); M: Abutilon theophrasti, herbicidal effect grade (Abutilon theophrasti; 192 g/ha): 4 (Herbicidal ratio of 70% or higher and lower than 90%); c: corn, effect on crop (criteria 0-5) (corn [5]; 192 g/ha): 4 (Herbicidal ratio of 70% or higher and lower than 90%); Effect grade on crop, a: transplanted rice plant (transplanted rice plant; [8]): 5 (Herbicidal ratio of 90% or more (almost completely withered)); Herbicidal effect grade, A: Echinochloa oryzacola Vasing. [6, 8]: 5 (Herbicidal ratio of 90% or more (almost completely withered)); N: Amaranthus retroflexus, herbicidal effect (criteria 0-5) (Amaranthus retroflexus; 192 g/ha): 0 (Herbicidal ratio of 5% or lower (almost no effect))
